The supplement of paper PMC10627819

Columns and labels:
[1] = tested on: S. pneumoniae D39V; assay: fitness (endpoint OD595 vs no drug) (fraction); higher = more growth
Summary of the method: (§1)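 In 384-well plates at 37 °C, cultures began at OD595 0.01 in 30 µl, with 55 µl used for S. pneumoniae. OD595 readings every 30 min for 14 h were corrected by the first reading. Fitness divides the stationary-phase transition optical density by the robust mean of no-drug control wells. The result is capped at 1.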

[2] = tested on: S. aureus DSM 20231; assay: as above
Summary of the method: as §1

[3] = tested on: S. aureus Newman; assay: as above
Summary of the method: as §1

[4] = tested on: S. pneumoniae D39V; assay: Bliss interaction score (quartile over a dose matrix) (fitness difference); higher = more antagonism (negative = synergy)
Summary of the method: (§2)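 Growth was read as OD595 when cultures entered stationary phase, and each value was divided by the plate's robust no-drug mean and capped at 1. This normalised ratio is the fitness value, and fitness for each single drug came from the combination data. The Bliss score subtracts the expected fitness, taken as the product, from the observed fitness and is given as quartiles across technical, biological and donor/recipient replicates.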

[5] = tested on: S. aureus DSM 20231; assay: as above
Summary of the method: as §2

[6] = tested on: B. subtilis 168; assay: as above
Summary of the method: as §2

[7] = tested on: S. aureus Newman; assay: as above
Summary of the method: as §2
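For Bliss interaction score (quartile over a dose matrix) in this document: first quartile when negative (synergy) and third quartile when positive (antagonism).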
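For fitness (endpoint OD595 vs no drug) in this document: OD595 on entry to stationary phase over no-drug wells; at most 1.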

Cc1cc(NS(=O)(=O)c2ccc(N)cc2)no1 [Sulfamethoxazol] + Cn1nnc(-c2ccc(-c3ccc(N4C[C@H](CO)OC4=O)cc3F)cn2)n1 [Tedizolid]
fitness
Conditions	first compound 1 µg/mL	first compound 2 µg/mL	first compound 4 µg/mL
[1], partner 0.03125 µg/mL	0.942	0.945	0.964
[1], partner 0.0625 µg/mL	0.933	0.944	0.914
[1], partner 0.125 µg/mL	0.754	0.781	0.777
[2], partner 0.0625 µg/mL	0.919	0.922	0.883
[2], partner 0.125 µg/mL	0.586	0.626	0.565
[2], partner 0.25 µg/mL	0.213	0.232	0.223
[3], partner 0.0625 µg/mL	0.975	0.958	0.965
[3], partner 0.125 µg/mL	0.901	0.94	0.934
[3], partner 0.25 µg/mL	0.576	–	–

fitness, one replicate
Conditions	partner 0.0625 µg/mL	partner 0.125 µg/mL	partner 0.25 µg/mL	partner 0.5 µg/mL
[1], first compound 1 µg/mL	–	–	0.48	0.549
[1], first compound 2 µg/mL	–	–	0.529	0.548
[1], first compound 4 µg/mL	–	–	0.558	0.505
[3], first compound 8 µg/mL	0.867	0.873	0.687	–

Conditions	Bliss interaction score
[4]	-0.103
[5]	0.0501
[6]	-0.056
[7]	0.0706

CN(N=O)C(=O)N[C@@H](C=O)[C@@H](O)[C@H](O)[C@H](O)CO [Streptozotocin] + CCCCCCCCCC(=O)N[C@@H]1[C@H]([C@@H]([C@H](O[C@H]1OC2=C3C=C4C=C2OC5=C(C=C(C=C5)[C@H]([C@H]6C(=O)N[C@@H](C7=C(C(=CC(=C7)O)OC8[C@H]([C@H]([C@@H]([C@H](O8)CO)O)O)O)C9=C(C=CC(=C9)[C@H](C(=O)N6)NC(=O)[C@@H]4NC(=O)[C@@H]1C2=CC(=CC(=C2)OC2=C(C=CC(=C2)[C@H](C(=O)N[C@H](CC2=CC(=C(O3)C=C2)Cl)C(=O)N1)N)O)O)O)C(=O)O)O[C@H]1[C@@H]([C@H]([C@@H]([C@H](O1)CO)O)O)NC(=O)C)Cl)CO)O)O [Teicoplanin]
fitness, main component drawn
Conditions	first compound 0.15 µg/mL	first compound 0.3 µg/mL	first compound 0.6 µg/mL
[2], partner 0.1562 µg/mL	0.801	0.799	0.66
[2], partner 0.3125 µg/mL	0.935	0.91	0.713
[2], partner 0.625 µg/mL	≥ 1	0.937	0.787
[3], partner 0.1562 µg/mL	0.874	0.724	0.493
[3], partner 0.3125 µg/mL	0.762	0.656	0.368
[3], partner 0.625 µg/mL	0.632	0.534	0.177

fitness, [3], one replicate, main component drawn
Conditions	first compound 0.15 µg/mL	first compound 0.3 µg/mL	first compound 0.6 µg/mL
partner 0.62 µg/mL	0.661	0.47	0.181
partner 1.24 µg/mL	0.578	0.259	0.0236
partner 2.48 µg/mL	0.363	0.0725	0.055

main component drawn
Conditions	Bliss interaction score
[4]	-0.0829
[5]	0.097
[6]	0.154
[7]	-0.166

Cn1c2cccc(=O)c-2nc2ccccc21 [Pyocyanin] + Cn1nnc(-c2ccc(-c3ccc(N4C[C@H](CO)OC4=O)cc3F)cn2)n1 [Tedizolid]
fitness
Conditions	partner 0.03125 µg/mL	partner 0.0625 µg/mL	partner 0.125 µg/mL	partner 0.25 µg/mL
[1], first compound 0.325 µg/mL	0.976	0.978	0.798	–
[1], first compound 0.65 µg/mL	0.97	0.952	0.844	–
[1], first compound 1.3 µg/mL	0.753	0.731	0.652	–
[2], first compound 1.25 µg/mL	–	0.813	0.739	0.218
[2], first compound 2.5 µg/mL	–	0.8	0.701	0.242
[2], first compound 5 µg/mL	–	0.635	0.565	0.169
[3], first compound 1.25 µg/mL	–	0.853	0.789	–
[3], first compound 2.5 µg/mL	–	0.764	0.651	–
[3], first compound 5 µg/mL	–	–	0.248	0.161

fitness, [1], one replicate
Conditions	first compound 0.325 µg/mL	first compound 0.65 µg/mL
partner 0.25 µg/mL	0.736	0.821
partner 0.5 µg/mL	0.344	0.545

Conditions	Bliss interaction score
[4]	-0.0686
[5]	0.0928
[6]	0.0439
[7]	-0.065
